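Protocol summary: plate cells (96-well), add compound at 5 concentrations, incubate 48 h, interpolate endpoints linearly. Here, GI50 denotes the concentration required for 50% inhibition of growth.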 Calls of active or inactive are those of the source. Cut-off read from the data, not from the text of the source: active = GI50 up to about 1.1 µM and inactive = higher.
Key:
Assay in all cases: NCI anticancer screen, dose series, 48 h
[1] = system: SK-OV-3
[2] = system: HCT-116
[3] = system: PC-3
[4] = system: HT-29
[5] = system: SK-MEL-28
[6] = system: MDA-MB-231
[7] = system: U-251
[8] = system: OVCAR-3
[9] = system: MCF7
[10] = system: OVCAR-4
[11] = system: NCI-H522
[12] = system: SF-295
[13] = system: NCI-H23
[14] = system: SW-620
[15] = system: UACC-62
[16] = system: M14
[17] = system: Malme-3M
[18] = system: RPMI-8226
[19] = system: SF-539
[20] = system: SN12C

| Structure (SMILES) | GI50 [1] | GI50 [2] | GI50 [3] | GI50 [4] | GI50 [5] | GI50 [6] | GI50 [7] | GI50 [8] | GI50 [9] | GI50 [10] | GI50 [11] | GI50 [12] | GI50 [13] | GI50 [14] | GI50 [15] | GI50 [16] | GI50 [17] | GI50 [18] | GI50 [19] | GI50 [20] |
| --- | --- | --- | --- | --- | --- | --- | --- | --- | --- | --- | --- | --- | --- | --- | --- | --- | --- | --- | --- | --- |
| C/C=C\C(CC(=O)NCC(=O)c1c[nH]c2ccccc12)CC(=O)OC (stereo not given) | > 100 µM (inactive) | > 100 µM (inactive) | > 100 µM (inactive) | > 100 µM (inactive) | > 100 µM (inactive) | > 100 µM (inactive) | > 100 µM (inactive) | > 100 µM (inactive) | > 100 µM (inactive) | > 100 µM (inactive) | > 100 µM (inactive) | > 100 µM (inactive) | > 100 µM (inactive) | > 100 µM (inactive) | > 100 µM (inactive) | > 100 µM (inactive) | > 100 µM (inactive) | > 100 µM (inactive) |  |  |
| Cc1ccc(S(=O)(=O)NC(CCC(=O)NNc2ccccc2)C(=O)NNc2ccccc2)cc1 (stereo not given) | > 100 µM (inactive) | 30.7 µM (inactive) | 4.14 µM (inactive) | 13.2 µM (inactive) |  | > 100 µM (inactive) | 3.08 µM (inactive) | 54.6 µM (inactive) | 23.1 µM (inactive) | 25.8 µM (inactive) | > 100 µM (inactive) | 10.4 µM (inactive) | 61.4 µM (inactive) | 6.65 µM (inactive) | 2.87 µM (inactive) | 9.53 µM (inactive) | 31.7 µM (inactive) | 5.58 µM (inactive) | 17.5 µM (inactive) |  |
| CC(=O)OCC1OC(N2C(c3ccccc3)=CC(c3ccccc3)C(C#N)=C2S)C(OC(C)=O)C(OC(C)=O)C1OC(C)=O (stereo not given) |  | 5.92 µM (inactive) | 2.77 µM (inactive) | 2.35 µM (inactive) | 8.95 µM (inactive) | 3.7 µM (inactive) | 3.57 µM (inactive) | 16.9 µM (inactive) | 19.4 µM (inactive) | 1.55 µM (inactive) | 7.89 µM (inactive) | 2.04 µM (inactive) | 7.41 µM (inactive) | 54.7 µM (inactive) | 0.583 µM (active) | 12.6 µM (inactive) | 5.43 µM (inactive) | 13.3 µM (inactive) | 2.56 µM (inactive) | 3.56 µM (inactive) |
| COc1ccc2nc(-n3c(/C=C/c4ccccc4O)nc4ccccc4c3=O)sc2c1 | > 100 µM (inactive) | 25.5 µM (inactive) | 53.5 µM (inactive) | 50.2 µM (inactive) | 31.4 µM (inactive) | > 100 µM (inactive) | > 100 µM (inactive) | > 100 µM (inactive) | 47.5 µM (inactive) | > 100 µM (inactive) | 58.1 µM (inactive) | 80.5 µM (inactive) | 47.6 µM (inactive) | > 100 µM (inactive) | 61.5 µM (inactive) | 33.6 µM (inactive) | 71.6 µM (inactive) | 24.9 µM (inactive) |  |  |
| N#Cc1c(N)nc(S)c(C#N)c1-c1ccccc1 |  | > 100 µM (inactive) | > 100 µM (inactive) | > 100 µM (inactive) | > 100 µM (inactive) | > 100 µM (inactive) | > 100 µM (inactive) | > 100 µM (inactive) | > 100 µM (inactive) |  | 47.3 µM (inactive) | > 100 µM (inactive) | > 100 µM (inactive) | > 100 µM (inactive) | > 100 µM (inactive) |  | > 100 µM (inactive) | > 100 µM (inactive) | > 100 µM (inactive) | > 100 µM (inactive) |
| COc1ccc(NC(C)=O)cc1N1C(=O)/C(=C\c2ccccc2)SC1c1cc(OC)c(OC)c(OC)c1 (stereo not given) | 41 µM (inactive) | 14.4 µM (inactive) | 29 µM (inactive) | 32.4 µM (inactive) | 80.7 µM (inactive) | 52.7 µM (inactive) | 32.5 µM (inactive) | 29.4 µM (inactive) | 28.5 µM (inactive) |  | 13.8 µM (inactive) | 42.1 µM (inactive) | 36.5 µM (inactive) | 40.4 µM (inactive) | 30.4 µM (inactive) | 35.6 µM (inactive) | 24.3 µM (inactive) | 34 µM (inactive) | 22.6 µM (inactive) | 80.5 µM (inactive) |
| COc1cc(/C=C/c2nc(NC(=S)Nc3ccccc3)nnc2C)cc(OC)c1OC | 29.6 µM (inactive) | 24.7 µM (inactive) | 14.3 µM (inactive) | 14.7 µM (inactive) | > 100 µM (inactive) | 33 µM (inactive) | 31 µM (inactive) |  | 13.9 µM (inactive) | 18.7 µM (inactive) | 11.1 µM (inactive) | 50.1 µM (inactive) | 17.3 µM (inactive) | 38.1 µM (inactive) | 14.1 µM (inactive) | 21.4 µM (inactive) | 23.9 µM (inactive) | 22.7 µM (inactive) |  | 39.1 µM (inactive) |
| Cc1ccc(S(=O)(=O)NNC(=O)Nc2ccc(Cl)cc2)cc1 | > 100 µM (inactive) | > 100 µM (inactive) | > 100 µM (inactive) | > 100 µM (inactive) | > 100 µM (inactive) | > 100 µM (inactive) | > 100 µM (inactive) |  | > 100 µM (inactive) | 51.5 µM (inactive) | > 100 µM (inactive) | > 100 µM (inactive) | > 100 µM (inactive) | > 100 µM (inactive) | > 100 µM (inactive) | > 100 µM (inactive) | > 100 µM (inactive) | > 100 µM (inactive) | 54 µM (inactive) | > 100 µM (inactive) |
| CCON1CC(C(=O)OC)=C(O)C1=O | > 100 µM (inactive) | > 100 µM (inactive) | > 100 µM (inactive) | > 100 µM (inactive) | > 100 µM (inactive) | > 100 µM (inactive) | > 100 µM (inactive) | > 100 µM (inactive) | > 100 µM (inactive) | > 100 µM (inactive) | > 100 µM (inactive) | > 100 µM (inactive) | > 100 µM (inactive) | > 100 µM (inactive) | > 100 µM (inactive) | > 100 µM (inactive) | > 100 µM (inactive) | > 100 µM (inactive) |  |  |
| S=C(N1CCN(c2cccc(Cl)c2)CC1)N1CCN(c2cccc(Cl)c2)CC1 | > 100 µM (inactive) | 21.2 µM (inactive) | 32.7 µM (inactive) | 28.8 µM (inactive) | 42.9 µM (inactive) | 11 µM (inactive) | 87.3 µM (inactive) | 47 µM (inactive) | 37.1 µM (inactive) | 28.9 µM (inactive) | 26.9 µM (inactive) | 39.3 µM (inactive) | > 100 µM (inactive) | > 100 µM (inactive) | 83 µM (inactive) | 53.7 µM (inactive) | 21.2 µM (inactive) | 34.6 µM (inactive) |  |  |
| CSC(=O)/C=C1\SS/C(=C\C(=O)SC)S1 |  | 1.69 µM (inactive) | 3.09 µM (inactive) | 2.47 µM (inactive) | 2.42 µM (inactive) | 2.07 µM (inactive) | 2.14 µM (inactive) | 2.99 µM (inactive) | 2.74 µM (inactive) | 3.75 µM (inactive) | 2.39 µM (inactive) | 5.36 µM (inactive) | 3.08 µM (inactive) | 1.81 µM (inactive) | 0.796 µM (active) | 2.09 µM (inactive) | 2.13 µM (inactive) | 1.55 µM (inactive) | 2.72 µM (inactive) | 1.82 µM (inactive) |
| CC(=O)c1cccc(Nc2nc3ccc(Cl)cc3c3[nH]c4ccccc4c23)c1 | 4.15 µM (inactive) | 3.85 µM (inactive) | 5.86 µM (inactive) | 6.21 µM (inactive) |  | 11.6 µM (inactive) | 2.12 µM (inactive) | 0.045 µM (active) | 0.434 µM (active) |  | 2.8 µM (inactive) | 2.45 µM (inactive) | 12.8 µM (inactive) | 4.35 µM (inactive) | 2.19 µM (inactive) | 11 µM (inactive) | 4.95 µM (inactive) | 6.95 µM (inactive) | 5.28 µM (inactive) | 13.1 µM (inactive) |
| Nc1nc(=O)n(C2CC(O)C(CO)O2)c2nc(-c3ccc(-c4ccccc4)cc3)cnc12 (stereo not given) | > 100 µM (inactive) | > 100 µM (inactive) | 37.6 µM (inactive) | > 100 µM (inactive) |  | 21.9 µM (inactive) | 18.6 µM (inactive) |  | 15.5 µM (inactive) | > 100 µM (inactive) | 22.1 µM (inactive) | 48.5 µM (inactive) | 99.3 µM (inactive) | > 100 µM (inactive) | 25.3 µM (inactive) | > 100 µM (inactive) | 41.7 µM (inactive) | > 100 µM (inactive) | 30 µM (inactive) | 62.7 µM (inactive) |
| CN(C(=O)Cc1cccc(N=C=S)c1)[C@H]1CCCC[C@@H]1N1CCCC1 | 25.5 µM (inactive) | 13 µM (inactive) | 15.2 µM (inactive) | 11.5 µM (inactive) | 16.1 µM (inactive) | 16.9 µM (inactive) | 17.1 µM (inactive) | 14.1 µM (inactive) | 13 µM (inactive) | 14.7 µM (inactive) | 12.9 µM (inactive) | 27.6 µM (inactive) | 14.2 µM (inactive) | 11.6 µM (inactive) | 15.7 µM (inactive) | 17.8 µM (inactive) | 22.4 µM (inactive) | 10.9 µM (inactive) |  | 15.2 µM (inactive) |
| c1ccc(NCCSc2nc3ccccc3s2)cc1 | > 100 µM (inactive) | 37.3 µM (inactive) | 55.2 µM (inactive) | 30.5 µM (inactive) | > 100 µM (inactive) | 29.4 µM (inactive) | 52.8 µM (inactive) | 88.3 µM (inactive) | 25.8 µM (inactive) | 49.8 µM (inactive) | 37.2 µM (inactive) | > 100 µM (inactive) | 29 µM (inactive) | 58.3 µM (inactive) | 66.5 µM (inactive) | 44.7 µM (inactive) | 44.9 µM (inactive) | 26.5 µM (inactive) |  | 46.1 µM (inactive) |
